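Assay format: 96-well plates, 48-hour exposure. GI50 is the concentration that inhibits growth by half.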 Activity calls are given as the source filed them. Cut-off read from the data, not from the text of the source: active = GI50 up to about 1.1 µM and inactive = higher.
Columns and labels:
Experiment in all cases: NCI-60 cell line screen, 48 h
Hs-578T = tested on: Hs-578T
EKVX = tested on: EKVX
OVCAR-4 = tested on: OVCAR-4
COLO 205 = tested on: COLO 205
786-0 = tested on: 786-0
PC-3 = tested on: PC-3
RPMI-8226 = tested on: RPMI-8226
NCI-H460 = tested on: NCI-H460
Malme-3M = tested on: Malme-3M
SR = tested on: SR
K562 = tested on: K562
SK-MEL-2 = tested on: SK-MEL-2
CAKI-1 = tested on: CAKI-1
SNB-75 = tested on: SNB-75
MDA-MB-231 = tested on: MDA-MB-231
SF-539 = tested on: SF-539
T47D = tested on: T47D
UACC-257 = tested on: UACC-257
NCI-H23 = tested on: NCI-H23
HCT-15 = tested on: HCT-15
MOLT-4 = tested on: MOLT-4
LOX IMVI = tested on: LOX IMVI
OVCAR-5 = tested on: OVCAR-5
A498 = tested on: A498
HL-60 = tested on: HL-60
CCRF-CEM = tested on: CCRF-CEM
SK-MEL-5 = tested on: SK-MEL-5
UO-31 = tested on: UO-31
OVCAR-3 = tested on: OVCAR-3
SK-OV-3 = tested on: SK-OV-3
HOP-62 = tested on: HOP-62
HOP-92 = tested on: HOP-92
SK-MEL-28 = tested on: SK-MEL-28
MCF7 = tested on: MCF7
HCC 2998 = tested on: HCC 2998
NCI-H226 = tested on: NCI-H226
TK-10 = tested on: TK-10
UACC-62 = tested on: UACC-62
U-251 = tested on: U-251
ACHN = tested on: ACHN
SF-268 = tested on: SF-268
MDA-N = tested on: MDA-N
OVCAR-8 = tested on: OVCAR-8
NCI-H522 = tested on: NCI-H522
DU-145 = tested on: DU-145
A549 = tested on: A549
RXF 393 = tested on: RXF 393
NCI/ADR-RES = tested on: NCI/ADR-RES
SN12C = tested on: SN12C
KM12 = tested on: KM12
MDA-MB-435 = tested on: MDA-MB-435
HT-29 = tested on: HT-29
SF-295 = tested on: SF-295
IGROV-1 = tested on: IGROV-1
HCT-116 = tested on: HCT-116
M14 = tested on: M14
SNB-19 = tested on: SNB-19
BT-549 = tested on: BT-549
SW-620 = tested on: SW-620
KM-20L2 = tested on: KM-20L2
DMS-114 = tested on: DMS-114
M19-MEL = tested on: M19-MEL
LXFL 529 = tested on: LXFL 529
XF498 = tested on: XF498
SNB-78 = tested on: SNB-78
DLD-1 = tested on: DLD-1

CSc1c(C#N)c(N)nc2c(/N=N\c3ccc(Cl)cc3)c(N)nn12 was tested, and the GI50 (Hs-578T) was 1.23 µM (inactive), the GI50 (EKVX) was 0.34 µM (active) and the GI50 (OVCAR-4) was 2.64 µM (inactive). The GI50 (COLO 205) was 13.5 µM (inactive), the GI50 (786-0) was 2.86 µM (inactive) and the GI50 (PC-3) was 2.7 µM (inactive). For the same molecule, the GI50 (RPMI-8226) was 2.6 µM (inactive), the GI50 (NCI-H460) was 11.1 µM (inactive) and the GI50 (Malme-3M) was 6.08 µM (inactive). The GI50 (SR) was 2.55 µM (inactive), the GI50 (K562) was 2.08 µM (inactive) and the GI50 (SK-MEL-2) was 2.87 µM (inactive). The GI50 (CAKI-1) was 18.7 µM (inactive), the GI50 (SNB-75) was 7.41 µM (inactive) and the GI50 (MDA-MB-231) was 2.04 µM (inactive). The GI50 (SF-539) was 5.85 µM (inactive), the GI50 (T47D) was 1.67 µM (inactive) and the GI50 (UACC-257) was 3.27 µM (inactive). For the same molecule, the GI50 (NCI-H23) was 2.6 µM (inactive), the GI50 (HCT-15) was 2260 nM and the GI50 (MOLT-4) was 2.44 µM (inactive). The GI50 (LOX IMVI) was 1.52 µM (inactive), the GI50 (OVCAR-5) was 17.3 µM (inactive) and the GI50 (A498) was 39.2 µM (inactive). The GI50 (HL-60) was 2.31 µM (inactive), the GI50 (CCRF-CEM) was 2.17 µM (inactive) and the GI50 (SK-MEL-5) was 14.6 µM (inactive). For the same molecule, the GI50 (UO-31) was 2.13 µM (inactive), the GI50 (OVCAR-3) was 1.85 µM (inactive) and the GI50 (SK-OV-3) was 33 µM (inactive). The GI50 (HOP-62) was 10.7 µM (inactive), the GI50 (HOP-92) was 3.29 µM (inactive) and the GI50 (SK-MEL-28) was 2.58 µM (inactive). The GI50 (MCF7) was 2.17 µM (inactive), the GI50 (HCC 2998) was 5.94 µM (inactive) and the GI50 (NCI-H226) was 16.9 µM (inactive). The GI50 (TK-10) was 13.3 µM (inactive), the GI50 (UACC-62) was 3.33 µM (inactive) and the GI50 (U-251) was 4.33 µM (inactive). The GI50 (ACHN) was 5.66 µM (inactive), the GI50 (SF-268) was 2.39 µM (inactive) and the GI50 (MDA-N) was 8.04 µM (inactive). For the same molecule, the GI50 (OVCAR-8) was 2.08 µM (inactive), the GI50 (NCI-H522) was 6.19 µM (inactive) and the GI50 (DU-145) was 2.24 µM (inactive). The GI50 (A549) was 25 µM (inactive), the GI50 (RXF 393) was 2.55 µM (inactive) and the GI50 (NCI/ADR-RES) was 16.8 µM (inactive). For the same molecule, the GI50 (SN12C) was 3.17 µM (inactive), the GI50 (KM12) was 6.14 µM (inactive) and the GI50 (MDA-MB-435) was 9.89 µM (inactive). The GI50 (HT-29) was 3.34 µM (inactive), the GI50 (SF-295) was 22.9 µM (inactive) and the GI50 (IGROV-1) was 1.85 µM (inactive). For the same molecule, the GI50 (HCT-116) was 7.87 µM (inactive), the GI50 (M14) was 18.6 µM (inactive) and the GI50 (SNB-19) was 17.3 µM (inactive). For the same molecule, the GI50 (BT-549) was 2.94 µM (inactive) and the GI50 (SW-620) was 2.16 µM (inactive).
CN1C(=O)NC2(O)c3ccccc3C(=O)C12O (stereo not given) was tested, and the GI50 (EKVX) was > 100 µM (inactive), the GI50 (OVCAR-4) was > 100 µM (inactive) and the GI50 (COLO 205) was > 100 µM (inactive). The GI50 (786-0) was > 100 µM (inactive), the GI50 (RPMI-8226) was > 100 µM (inactive) and the GI50 (NCI-H460) was > 100 µM (inactive). For the same molecule, the GI50 (Malme-3M) was > 100 µM (inactive), the GI50 (SR) was > 100 µM (inactive) and the GI50 (K562) was > 100 µM (inactive). For the same molecule, the GI50 (SK-MEL-2) was > 100 µM (inactive), the GI50 (CAKI-1) was > 100 µM (inactive) and the GI50 (SNB-75) was > 100 µM (inactive). The GI50 (KM-20L2) was > 100 µM (inactive), the GI50 (UACC-257) was > 100 µM (inactive) and the GI50 (NCI-H23) was > 100 µM (inactive). The GI50 (DMS-114) was > 100 µM (inactive), the GI50 (HCT-15) was > 100000 nM and the GI50 (MOLT-4) was > 100 µM (inactive). For the same molecule, the GI50 (LOX IMVI) was > 100 µM (inactive), the GI50 (OVCAR-5) was > 100 µM (inactive) and the GI50 (HL-60) was > 100 µM (inactive). For the same molecule, the GI50 (CCRF-CEM) was > 100 µM (inactive), the GI50 (UO-31) was > 100 µM (inactive) and the GI50 (OVCAR-3) was > 100 µM (inactive). For the same molecule, the GI50 (SK-OV-3) was > 100 µM (inactive), the GI50 (HOP-92) was > 100 µM (inactive) and the GI50 (SK-MEL-28) was > 100 µM (inactive). For the same molecule, the GI50 (M19-MEL) was > 100 µM (inactive), the GI50 (TK-10) was > 100 µM (inactive) and the GI50 (UACC-62) was > 100 µM (inactive). The GI50 (U-251) was > 100 µM (inactive), the GI50 (SF-268) was > 100 µM (inactive) and the GI50 (LXFL 529) was > 100 µM (inactive). For the same molecule, the GI50 (XF498) was > 100 µM (inactive), the GI50 (OVCAR-8) was > 100 µM (inactive) and the GI50 (NCI-H522) was > 100 µM (inactive). The GI50 (SNB-78) was > 100 µM (inactive), the GI50 (A549) was > 100 µM (inactive) and the GI50 (KM12) was > 100 µM (inactive). The GI50 (HT-29) was > 100 µM (inactive), the GI50 (SF-295) was > 100 µM (inactive) and the GI50 (IGROV-1) was > 100 µM (inactive). The GI50 (HCT-116) was > 100 µM (inactive), the GI50 (M14) was > 100 µM (inactive) and the GI50 (DLD-1) was > 100 µM (inactive). For the same molecule, the GI50 (SNB-19) was > 100 µM (inactive) and the GI50 (SW-620) was > 100 µM (inactive).
O=C(NCCNCCNC(=O)c1cc(-c2ccccc2)nc2ccccc12)c1cc(-c2ccccc2)nc2ccccc12 was tested, and the GI50 (Hs-578T) was 2.73 µM (inactive), the GI50 (EKVX) was 4.47 µM (inactive) and the GI50 (OVCAR-4) was 2 µM (inactive). For the same molecule, the GI50 (COLO 205) was 1.98 µM (inactive), the GI50 (786-0) was 1.69 µM (inactive) and the GI50 (PC-3) was 2.75 µM (inactive). The GI50 (RPMI-8226) was 2.73 µM (inactive), the GI50 (NCI-H460) was 1.5 µM (inactive) and the GI50 (Malme-3M) was 1.92 µM (inactive). For the same molecule, the GI50 (SR) was 2.57 µM (inactive), the GI50 (K562) was 2.16 µM (inactive) and the GI50 (SK-MEL-2) was 1.82 µM (inactive). The GI50 (CAKI-1) was 9.79 µM (inactive), the GI50 (SNB-75) was 1.92 µM (inactive) and the GI50 (MDA-MB-231) was 2.51 µM (inactive). For the same molecule, the GI50 (SF-539) was 2 µM (inactive), the GI50 (T47D) was 2.72 µM (inactive) and the GI50 (UACC-257) was 1.98 µM (inactive). For the same molecule, the GI50 (NCI-H23) was 3.18 µM (inactive), the GI50 (HCT-15) was 2920 nM and the GI50 (MOLT-4) was 2.37 µM (inactive). The GI50 (LOX IMVI) was 1.69 µM (inactive), the GI50 (OVCAR-5) was 2.17 µM (inactive) and the GI50 (A498) was 2.7 µM (inactive). The GI50 (HL-60) was 1.87 µM (inactive), the GI50 (CCRF-CEM) was 3.77 µM (inactive) and the GI50 (SK-MEL-5) was 1.77 µM (inactive). The GI50 (UO-31) was 2.64 µM (inactive), the GI50 (OVCAR-3) was 2.24 µM (inactive) and the GI50 (SK-OV-3) was 7.46 µM (inactive). For the same molecule, the GI50 (HOP-62) was 1.57 µM (inactive), the GI50 (HOP-92) was 1.82 µM (inactive) and the GI50 (SK-MEL-28) was 1.77 µM (inactive). The GI50 (MCF7) was 1.78 µM (inactive), the GI50 (HCC 2998) was 1.73 µM (inactive) and the GI50 (NCI-H226) was 2.91 µM (inactive). For the same molecule, the GI50 (TK-10) was 2.4 µM (inactive), the GI50 (UACC-62) was 2.09 µM (inactive) and the GI50 (U-251) was 2.08 µM (inactive). The GI50 (ACHN) was 2.14 µM (inactive), the GI50 (SF-268) was 2.84 µM (inactive) and the GI50 (MDA-N) was 1.67 µM (inactive). The GI50 (OVCAR-8) was 2.04 µM (inactive), the GI50 (NCI-H522) was 1.93 µM (inactive) and the GI50 (DU-145) was 2.38 µM (inactive). For the same molecule, the GI50 (A549) was 3.37 µM (inactive), the GI50 (RXF 393) was 1.67 µM (inactive) and the GI50 (NCI/ADR-RES) was 1.76 µM (inactive). For the same molecule, the GI50 (SN12C) was 2.37 µM (inactive), the GI50 (KM12) was 1.91 µM (inactive) and the GI50 (MDA-MB-435) was 1.82 µM (inactive). The GI50 (HT-29) was 1.81 µM (inactive), the GI50 (SF-295) was 1.67 µM (inactive) and the GI50 (IGROV-1) was 2.52 µM (inactive). For the same molecule, the GI50 (HCT-116) was 1.7 µM (inactive), the GI50 (M14) was 1.6 µM (inactive) and the GI50 (SNB-19) was 3.21 µM (inactive). The GI50 (BT-549) was 7.91 µM (inactive) and the GI50 (SW-620) was 1.75 µM (inactive).
